# Tested on: primary human T cells
# Experiment: Surface CAR and surface IL12 in CAR+ gate after 20 hours vardenafil, CD19-CAR-P2A-mbIL12-PDE5 constructs (Example 8; Table 22)
# Assay type: cell-based
# Conditions: 5 μM Vardenafil, CAR+ cell gate, regulated CD19-CAR-P2A-mbIL12-PDE5 constructs
# Description: On day 0, primary human T cells were stimulated with Dynabeads (T-expander CD3/CD28) at a 3:1 bead: cell ratio in media containing 10% fetal bovine serum (FBS). The next day, lentivirus produced with constructs OT-001407 (CAR only control), OT-001895, OT-001894, OT-001891, OT-002044 were added in the presence of reduced serum (5% FBS). On day 2, the cells were diluted 1:2 with fresh 10% FBS media. […] After overnight incubation, transduction efficiency was analyzed by flow cytometry using CD19-Fc to detect surface CAR expression. Surface IL12 expression within the CAR+ cell gate was detected with an anti-IL12p70 antibody (BD, Franklin Lakes, N.J.) and is shown in Table 22.
smiles,measurement,value
"CCCc1nc(C)c2c(=O)[nH]c(-c3cc(S(=O)(=O)N4CCN(CC)CC4)ccc3OCC)nn12 [vardenafil, Vardenafil]",increases in expression of surface IL12 compared to vehicle control,17-24 fold
